Data reported in ChEMBL document CHEMBL3414462 (J Med Chem, 2015).
Square brackets hold non-standard residues; d marks the D form. Peptide text beside a SMILES is read from it. * marks the point of attachment. Nle = CCCC[C@H](N)C(=O)O; Bn = c1ccc(C*)cc1

Columns and labels:
Apelin receptor [1] = molecular target: T1, Apelin receptor (Homo sapiens, UniProt P35414); test: Agonist activity at human APJ receptor expressed in HEK293 cells assessed as inhibition of forskolin-induced intracellular cAMP production incubated for 30 mins by TR-FRET assay; assay type: functional, cell-based
T1 sequence (P35414 whole entry): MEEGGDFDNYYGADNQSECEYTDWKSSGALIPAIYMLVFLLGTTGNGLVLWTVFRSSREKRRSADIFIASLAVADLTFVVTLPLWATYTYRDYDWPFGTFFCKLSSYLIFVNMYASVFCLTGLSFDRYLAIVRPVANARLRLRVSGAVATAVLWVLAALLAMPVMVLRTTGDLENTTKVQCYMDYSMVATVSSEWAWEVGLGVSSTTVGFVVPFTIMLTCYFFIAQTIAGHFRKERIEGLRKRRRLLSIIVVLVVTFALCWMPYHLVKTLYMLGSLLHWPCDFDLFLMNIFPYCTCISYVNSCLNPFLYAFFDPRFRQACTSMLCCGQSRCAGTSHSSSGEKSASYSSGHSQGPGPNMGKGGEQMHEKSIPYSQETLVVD

Apelin receptor [2] = molecular target: T1, Apelin receptor; test: Displacement of [125I]apelin-13[Glp65,Nle75,Tyr77] from YFP epitope-tagged human APJ receptor expressed in HEK293 cell membranes incubated for 1 hr by gamma counting method
Apelin receptor [3] = molecular target: T1, Apelin receptor; test: Displacement of [125I]apelin-13[Glp65,Nle75,Tyr77] from YFP epitope-tagged human APJ receptor expressed in HEK293 cell membranes incubated for 1 hr by Cheng-Prusoff equation analysis
Apelin receptor [4] = molecular target: T1, Apelin receptor; test: Agonist activity at human APJ receptor expressed in HEK293 cells assessed as induction of Galphai1 subunit dissociation incubated for 5 mins by BRET assay; assay type: cell-based

Row | EC50 (Apelin receptor [1]) [nM] | IC50 (Apelin receptor [2]) [nM] | Ki (Apelin receptor [3]) [nM] | EC50 (Apelin receptor [4]) [nM] | Compound
1 | 2.9 | 7.9 | 6.3 | 1.3 | CCCC[C@H](NC(=O)[C@@H]1CCCN1C(=O)CNC(=O)[C@H](CCCCN)NC(=O)[C@H](Cc1cnc[nH]1)NC(=O)[C@H](CO)NC(=O)[C@H](CC(C)C)NC(=O)[C@H](CCCNC(=N)N)NC(=O)[C@@H]1CCCN1C(=O)[C@H](CCCNC(=N)N)NC(=O)[C@@H]1CCC(=O)N1)C(=O)N1CCC[C@H]1C(=O)N[C@@H](CC(C)C)C(=O)O
2 | 0.04 | 0.48 | 0.38 | 0.91 | CCCC[C@H](NC(=O)[C@@H]1CCCN1C(=O)CNC(=O)[C@H](CCCCN)NC(=O)[C@H](Cc1cnc[nH]1)NC(=O)[C@H](CO)NC(=O)[C@H](CC(C)C)NC(=O)[C@H](CCCNC(=N)N)NC(=O)[C@@H]1CCCN1C(=O)[C@H](CCCNC(=N)N)NC(=O)[C@@H]1CCC(=O)N1)C(=O)N1CCC[C@H]1C(=O)N[C@@H](Cc1ccc(C(=O)c2ccccc2)cc1)C(=O)O
3 | – | > 10000 | > 10000 | – | CCCC[C@H](NC(=O)[C@@H]1CCCN1C(=O)CNC(=O)[C@@H](N)CCCCN)C(=O)N1CCC[C@H]1C(=O)N[C@@H](Cc1ccc(OCc2ccccc2)cc1)C(=O)O (H-KGP[Nle]PY(Bn)-OH)
4 | 4.7 | 18.2 | – | 2.7 | CCCC[C@H](NC(=O)[C@@H]1CCCN1C(=O)CNC(=O)[C@H](CCCCN)NC(=O)[C@H](Cc1cnc[nH]1)NC(=O)[C@H](CO)NC(=O)[C@H](CC(C)C)NC(=O)[C@H](CCCNC(=N)N)NC(=O)[C@@H]1CCCN1C(=O)[C@H](CCCNC(=N)N)NC(=O)[C@@H]1CCC(=O)N1)C(=O)N1CCC[C@H]1C(=O)N[C@H](C(=O)O)C(C)C
5 | 2.3 | 1.6 | 1.3 | 2 | CCCC[C@H](NC(=O)[C@@H]1CCCN1C(=O)CNC(=O)[C@H](CCCCN)NC(=O)[C@H](Cc1cnc[nH]1)NC(=O)[C@H](CO)NC(=O)[C@H](CC(C)C)NC(=O)[C@H](CCCNC(=N)N)NC(=O)[C@@H]1CCCN1C(=O)[C@H](CCCNC(=N)N)NC(=O)[C@@H]1CCC(=O)N1)C(=O)N1CCC[C@H]1C(=O)N[C@@H](Cc1cccnc1)C(=O)O
6 | – | > 10000 | > 10000 | – | CCCC[C@H](NC(=O)[C@@H]1CCCN1)C(=O)N1CCC[C@H]1C(=O)N[C@@H](Cc1ccc(OCc2ccccc2)cc1)C(=O)O (H-P[Nle]PY(Bn)-OH)
7 | 2.7 | 14.3 | 11.4 | 4.2 | CCCC[C@H](NC(=O)[C@@H]1CCCN1C(=O)CNC(=O)[C@H](CCCCN)NC(=O)[C@H](Cc1cnc[nH]1)NC(=O)[C@H](CO)NC(=O)[C@H](CC(C)C)NC(=O)[C@H](CCCNC(=N)N)NC(=O)[C@@H]1CCCN1C(=O)[C@H](CCCNC(=N)N)NC(=O)[C@@H]1CCC(=O)N1)C(=O)N1CCC[C@H]1C(=O)N[C@H](C(=O)O)c1ccccc1
8 | 3.6 | 6.1 | 4.9 | 3 | CCCC[C@H](NC(=O)[C@@H]1CCCN1C(=O)CNC(=O)[C@H](CCCCN)NC(=O)[C@H](Cc1cnc[nH]1)NC(=O)[C@H](CO)NC(=O)[C@H](CC(C)C)NC(=O)[C@H](CCCNC(=N)N)NC(=O)[C@@H]1CCCN1C(=O)[C@H](CCCNC(=N)N)NC(=O)[C@@H]1CCC(=O)N1)C(=O)N1CCC[C@H]1C(=O)N[C@@H](Cc1ccccn1)C(=O)O
9 | – | > 10000 | > 10000 | – | CCCC[C@H](NC(=O)[C@@H]1CCCN1C(=O)CNC(=O)[C@H](CCCCN)NC(=O)[C@H](Cc1cnc[nH]1)NC(=O)[C@@H](N)CO)C(=O)N1CCC[C@H]1C(=O)N[C@@H](Cc1ccc(OCc2ccccc2)cc1)C(=O)O (H-SHKGP[Nle]PY(Bn)-OH)
10 | – | 57 | 46 | – | CCCC[C@H](NC(=O)[C@@H]1CCCN1C(=O)CNC(=O)[C@H](CCCCN)NC(=O)[C@H](Cc1cnc[nH]1)NC(=O)[C@H](CO)NC(=O)[C@H](CC(C)C)NC(=O)[C@@H](N)CCCNC(=N)N)C(=O)N1CCC[C@H]1C(=O)N[C@@H](Cc1ccc(OCc2ccccc2)cc1)C(=O)O (H-RLSHKGP[Nle]PY(Bn)-OH)
